# Data: article PMC6687188, “Novel lactate dehydrogenase inhibitors with in vivo efficacy against Cryptosporidium parvum” (PLoS Pathogens, 2019)
# Molecular target: recombinant CpLDH protein (Cryptosporidium parvum, UniProt Q9GT92, F198L/K295E/R251K)
compound,measurement,value
COC1OC(COCc2ccc(Cl)cc2)C(OCc2ccc(Cl)cc2)C1O (centres unmarked) [NSC626120],MEAN CpLDH INHIBITION (%),-0.60%
CCOC(=O)C(C)NC(=O)N(C)C12CC3CC(CC(C3)C1)C2 (centres unmarked) [NSC208913],MEAN CpLDH INHIBITION (%),-30.10%
[Cl-].c1csc(C[N+]23CN4CN(CN(C4)C2)C3)c1 [NSC49660],MEAN CpLDH INHIBITION (%),-3.53%
N#CC(C#N)=Cc1cccc(Oc2ccccc2)c1 [NSC643031],MEAN CpLDH INHIBITION (%),-51.68%
COC(C(=O)C(O)C(C)O)C1Cc2cc3cc(OC4CC(OC5CC(O)C(O)C(C)O5)C(O)C(C)O4)c(C)c(O)c3c(O)c2C(=O)C1OC1CC(OC2CC(OC3CC(O)C(OC)C(C)O3)C(O)C(C)O2)C(O)C(C)O1 (centres unmarked) [NSC269146],MEAN CpLDH INHIBITION (%),-38.98%
C=C(C)C(=O)OC1CCC2(C)C(CCC3C2CCC2(C)C(c4ccc(=O)oc4)CC4OC432)C1 (centres unmarked) [NSC267712],MEAN CpLDH INHIBITION (%),-57.63%
CN1c2c(nc(N)[nH]c2=O)NCC1CCNc1ccc(C(=O)N[C@@H](CCC(=O)[O-])C(=O)[O-])cc1.[Na+].[Na+] (some centres unmarked) [NSC139490],MEAN CpLDH INHIBITION (%),-2.06%
O=C(O)/C=C\C(=O)O.[N-]=[N+]=Nc1ccc2c(c1)Sc1ccccc1N2CCCCN1CCN(Cc2ccc(C(=O)c3ccccc3)cc2)CC1 [NSC676963],MEAN CpLDH INHIBITION (%),-97.54%
O=C([O-])c1cc(I)cc(I)c1[OH2+].O=C([O-])c1cc(I)cc(I)c1[OH2+].[Mn+2] [NSC619907],MEAN CpLDH INHIBITION (%),-115.80%
COc1ccc(NC(=O)C(=O)/C=C(\O)c2ccccc2)cc1 [NSC658709],MEAN CpLDH INHIBITION (%),-17.00%
O=C1c2ccccc2C(=O)c2sc(Nc3ccc(Cl)c(Cl)c3)nc21 [NSC631521],MEAN CpLDH INHIBITION (%),-0.12%
CO[C@H]1/C=C/O[C@@]2(C)Oc3c(C)c(O)c4c(c3C2=O)C(=O)C=C(NC(=O)/C(C)=C\C=C\[C@H](C)[C@H](OC=O)[C@@H](C)[C@@H](O)[C@@H](C)[C@H](OC(C)=O)[C@@H]1C)C4=O [NSC239375],MEAN CpLDH INHIBITION (%),-42.34%
CCN(CC)CC.CCOc1ccc(NC(=O)N=C=[N-])cc1.[CH-]1CCCCC1.[CH-]1CCCCC1.[CH-]1CCCCC1.[Cl-].[Sn+4] [NSC353527],MEAN CpLDH INHIBITION (%),-42.92%
CC(C)N.CC(C)N.[Cl-].[Cl-].[OH-].[OH-].[Pt] [NSC256927],MEAN CpLDH INHIBITION (%),-46.96%
CN(C)CC1CCC/C(=C\c2ccc(OC(=O)/C=C/c3ccccc3)cc2)C1=O.Cl (centres unmarked) [NSC697443],MEAN CpLDH INHIBITION (%),-57.12%
O=C(CC1(O)C(=O)Nc2c(Cl)ccc(Cl)c21)c1ccc(Cl)cc1 (centres unmarked) [NSC635437],MEAN CpLDH INHIBITION (%),-7.08%
CN(C)CCCN1c2ccc3ccccc3c2Sc2cccc(Cl)c21 [NSC24113],MEAN CpLDH INHIBITION (%),-11.52%
NC(=O)N/N=C1\CC2C3CC4C2C4C13 (centres unmarked) [NSC673912],MEAN CpLDH INHIBITION (%),-116.36%
CCOC(OC1=C(C#N)CCC1)C(C)[Se]c1ccccc1 (centres unmarked) [NSC646189],MEAN CpLDH INHIBITION (%),-21.95%
Clc1cc2nc[nH]c2cc1Cl [NSC326397],MEAN CpLDH INHIBITION (%),-5.75%
Cc1ccc(N=N/C(=N\NC(=O)c2ccc(C)cc2)c2ccc(N(CCC#N)CCC#N)cc2C)cc1 [NSC703550],MEAN CpLDH INHIBITION (%),-165.27%
CC(C)CCCC(=O)CCCCCCC(=O)CCN(O)C(=O)C(N)CO.O=S(=O)(O)O (centres unmarked) [NSC106997],MEAN CpLDH INHIBITION (%),-28.98%
NP(=O)(Oc1c2occc2cc2ccc(=O)oc12)N(CCCl)CCCl (centres unmarked) [NSC345081],MEAN CpLDH INHIBITION (%),-64.34%
COc1ccc(N=C2C(=Nc3ccc(OC)cc3)N(c3ccc(N(C)C)cc3)C(=S)N2c2ccc(OC)cc2)cc1 [NSC671394],MEAN CpLDH INHIBITION (%),-158.34%
CCOc1ccccc1NC(=O)CC1Sc2ccccc2NC1=O (centres unmarked) [NSC637680],MEAN CpLDH INHIBITION (%),-16.33%
NC(N)=N/N=C(\c1ccc(Cl)cc1)C1CC1 [NSC74420],MEAN CpLDH INHIBITION (%),-7.03%
COc1cc(C(C)c2cc3c(cc2OCCO)OCO3)cc(OC)c1OC (centres unmarked) [NSC352876],MEAN CpLDH INHIBITION (%),-6.93%
CC1=Nc2ccccc2/C1=C\c1c(C)[nH]c2ccccc12 [NSC76747],MEAN CpLDH INHIBITION (%),-6.97%
Nc1nncs1 [NSC4728],MEAN CpLDH INHIBITION (%),-23.83%
CC(C)CCCCCCCCCCCCC(=O)NCC(=O)NC1C(O)C(O)C(Nc2ncnc3nc[nH]c23)OC1C(O)CO (centres unmarked) [NSC65104],MEAN CpLDH INHIBITION (%),-113.50%
[N-]=[N+]=NC1=NNC2(C(=O)N1)c1ccccc1-c1ccccc12 [NSC666168],MEAN CpLDH INHIBITION (%),-17.65%
O=C(CC(=O)c1ccccc1)CC(O)(c1ccccc1)c1ccccc1 [NSC634232],MEAN CpLDH INHIBITION (%),-33.26%
C[C@@H]1O[C@@H](O[C@@H]2C=C3CC[C@@H]4[C@H](CC[C@]5(C)[C@@H](c6ccc(=O)oc6)CC[C@]45O)[C@@]3(C)CC2)[C@H](O)[C@H](O)[C@H]1O[C@@H]1O[C@H](CO)[C@@H](O)[C@H](O)[C@H]1O [NSC7525],MEAN CpLDH INHIBITION (%),-34.67%
COc1cc2oc3cc(=O)cc4oc(-c5ccccc5)cc(c2c2c1CCC(c1ccccc1)O2)c43 (centres unmarked) [NSC376248],MEAN CpLDH INHIBITION (%),-15.03%
CC[C@@]1(O)C[C@H](O[C@H]2C[C@H](N(C)C)[C@H](O)[C@H](C)O2)c2c(cc3c(c2O)C(=O)c2c(O)ccc(O)c2C3=O)[C@H]1C(=O)OC [NSC267229],MEAN CpLDH INHIBITION (%),-179.02%
N#CC1(C#N)C2C=CC(c3coc4cccc2c34)C1(C#N)C#N (centres unmarked) [NSC629301],MEAN CpLDH INHIBITION (%),-23.71%
Cc1ccc(CC2(OCCN(C)C)CCC(C(C)(C)C)CC2)cc1.O=C(O)/C=C/C(=O)O (centres unmarked) [NSC670225],MEAN CpLDH INHIBITION (%),-54.38%
CC(=O)[O][Hg][c]1c(C)c(C)c(C)c(C)c1C [NSC174176],MEAN CpLDH INHIBITION (%),-60.94%
BrCCC[P+](c1ccccc1)(c1ccccc1)c1ccccc1.[Br-] [NSC84074],MEAN CpLDH INHIBITION (%),-40.93%
CC(C)=CCC(OC(=O)C=C(C)C)C1=CC(=O)c2c(O)ccc(O)c2C1=O (centres unmarked) [NSC140377],MEAN CpLDH INHIBITION (%),-8.72%
COc1cc2c3c(n(C)c(=O)c2cc1OC)-c1cc2c(cc1C3=O)OCO2 [NSC314622],MEAN CpLDH INHIBITION (%),-4.47%
NC(=S)NN=Cc1ncccc1O [NSC95678],MEAN CpLDH INHIBITION (%),-37.43%
CC(=O)[O][Pb]([O]C(C)=O)([c]1ccccc1)[c]1ccccc1 [NSC173046],MEAN CpLDH INHIBITION (%),-141.42%
O=C1Oc2ccccc2C1C/C(=N\Nc1ccccc1)c1ccccc1O (centres unmarked) [NSC647613],MEAN CpLDH INHIBITION (%),-29.39%
COC(=O)c1cc(-c2c[nH]cc2C(=O)OCc2ccccc2)cn1S(=O)(=O)c1ccc(C)cc1 [NSC679527],MEAN CpLDH INHIBITION (%),-27.66%
Cc1cc(N(C)C)ccc1N=Nc1ccc2ncccc2c1 [NSC680516],MEAN CpLDH INHIBITION (%),-19.55%
CN(C)CCOc1ccc(I)cc1Cc1ccccc1.Cl [NSC11930],MEAN CpLDH INHIBITION (%),-34.92%
CC1(C)CC2=NO[Se]3=C2C(=NO3)C1 [NSC328587],MEAN CpLDH INHIBITION (%),-53.59%
Cl.Nc1ccc(OCCCc2c(-c3ccccc3)nc(N)[nH]c2=O)cc1 [NSC100856],MEAN CpLDH INHIBITION (%),-59.57%
O=C(ON=C1c2ccccc2C(Br)C(Br)c2ccccc21)c1ccccc1 (centres unmarked) [NSC670140],MEAN CpLDH INHIBITION (%),-63.78%
CCCCCC/C=C\CCCCCCCCCc1cccc(OC)c1O [NSC617540],MEAN CpLDH INHIBITION (%),-6.79%
CN1CC[C@]23c4ccccc4N[C@H]1[C@]21CCN(C)[C@H]3Nc2ccccc21 [NSC99016],MEAN CpLDH INHIBITION (%),-25.29%
CC(=O)OCc1cc(=O)n(C)c2c3c4c(cc12)c(C)cc(=O)n4CO3 [NSC157004],MEAN CpLDH INHIBITION (%),-1.50%
C=C(C#N)C(=O)OCC(CC)CC.C=C(C#N)C(=O)OCC(CC)CC.CS(C)=O.CS(C)=O.Nc1c(N=Nc2ccc(-c3ccc(N=Nc4cc(S(=O)(=O)[O-])c5ccccc5c4N)cc3)cc2)cc(S(=O)(=O)[O-])c2ccccc12.[Pt+2] [NSC615593],MEAN CpLDH INHIBITION (%),-2.09%
CC1=C2C(=CC(C)(C)[C@@H]2O)C(=O)[C@](C)(O)C12CC2 [NSC400978],MEAN CpLDH INHIBITION (%),-79.24%
OCC1OC(n2cnc3c(SCc4ccccc4)ncnc32)C(O)C1O (centres unmarked) [NSC26273],MEAN CpLDH INHIBITION (%),-4.046%
O=C1C(CN2CCCCC2)CCCC1CN1CCCCC1 (centres unmarked) [NSC39202],MEAN CpLDH INHIBITION (%),-37.56%
O=C1C=C(Nc2cccnc2)c2ccccc2C1=O [NSC637729],MEAN CpLDH INHIBITION (%),-66.55%
CC(=O)O[C@@H]1C[C@H]2O[C@@H]3C=C(C)CC[C@]3(C)[C@]1(C)[C@]21CO1 [NSC267033],MEAN CpLDH INHIBITION (%),-8.12%
CN1CCN(CCSC2Cc3cc(Cl)ccc3Sc3ccccc32)CC1 (centres unmarked) [NSC635366],MEAN CpLDH INHIBITION (%),-12.08%
Cc1cc([N+](=O)[O-])ccc1Nc1cccc(Cl)c1C [NSC625641],MEAN CpLDH INHIBITION (%),-6.68%
O=c1[nH]c2ccc(O)cc2o1 [NSC603719],MEAN CpLDH INHIBITION (%),-2.52%
Cc1ccc(NC(=O)/C=C/c2ccccc2)c(C)c1 [NSC191389],MEAN CpLDH INHIBITION (%),-64.07%
CC1(O)C=CC(=O)C=C1 [NSC295156],MEAN CpLDH INHIBITION (%),-1.00%
CC(=O)N=C1N(/C=C2\C(=O)Oc3ccccc3C2=O)C(=O)/C(=C/c2ccccc2Cl)N1C [NSC658494],MEAN CpLDH INHIBITION (%),-56.68%
N#CC(=S)Nc1ccc(Cl)c(Cl)c1 [NSC379531],MEAN CpLDH INHIBITION (%),-50.91%
CCCCOCc1cc(CN2CCN(C)CC2)c(O)c2ncccc12 [NSC20514],MEAN CpLDH INHIBITION (%),-30.20%
COc1ccc(-c2csc(=[N+]3CCCCC3)s2)cc1 [NSC302358],MEAN CpLDH INHIBITION (%),0.36%
Nc1ncnc2c1ncn2C1OC(CO)C(O)C1O (centres unmarked) [NSC70422],MEAN CpLDH INHIBITION (%),-12.00%
CCCCCCCCCCCCCCCC[N+](C)(C)CCl.[Cl-] [NSC672904],MEAN CpLDH INHIBITION (%),-0.06%
O=C1NC(c2cccc3ccccc23)Nc2ccc(Cl)cc21 (centres unmarked) [NSC175636],MEAN CpLDH INHIBITION (%),-17.73%
N[C@@H](Cc1ccc2oc3cc(=O)c4ccccc4c-3nc2c1)C(=O)O [NSC672425],MEAN CpLDH INHIBITION (%),-0.60%
CC(=O)OC1CC(n2cc(F)c(=O)[nH]c2=O)OC1CO (centres unmarked) [NSC407335],MEAN CpLDH INHIBITION (%),-11.80%
Cc1nc(C(N)=S)sc1C(=O)CC(=O)C(=O)Nc1c(C(C)C)cccc1C(C)C [NSC642048],MEAN CpLDH INHIBITION (%),-4.29%
CC(C)C1=C(O)C2=C(C(=O)C1=O)[C@@]1(C)CCCC(C)(C)[C@@H]1C[C@H]2O [NSC294577],MEAN CpLDH INHIBITION (%),-16.31%
C=C1C(=O)O[C@@H]2C[C@@H](C)[C@@H]3C=CC(=O)[C@@]3(C)[C@@H](O)[C@H]12 [NSC85236],MEAN CpLDH INHIBITION (%),-30.32%
O=C1/C(=C\c2cccs2)Oc2ccccc21 [NSC56544],MEAN CpLDH INHIBITION (%),-23.78%
